# Data as given in patent publication US12208091B2, “Compounds for treatment of eye diseases associated with excessive vascularisation” (Active Biotech AB, priority 2019, dated 2025).
# “Also recorded” adds a separate entry of the source.
# Assays:
# [1] = test system: bFGF induced corneal vascularisation; assay: bFGF induced corneal vascularisation (pellet in corneal pocket), area of neovascularisation; type: in vivo, C57BL/6 mice
# [2] = test system: relapsing MS patients; settings: clinical development program; cited from earlier work
# [3] = test system: Human retinal microvascular endothelial cells (HRMECs); assay: Tube formation assay, combination with aflibercept (contemplated); type: cell-based; settings: 1 and 10 μM combined with Aflibercept (30 nM)
# Source text: Microglia, especially activated microglia play important roles in angiogenesis and maintenance of vascular function haemostasis in the retinal microvasculature (Ding et al 2018). It is contemplated that a co-culture of human retinal microvasculature endothelial cells (HRMEC's) and human microglia from brain can be used to assess the effects of a compound of the disclosure, such as laquinimod, tasquinimod, ABR-215174 or ABR-215691, on neovascularization. A method such as the one outlined below may be used.
# This study may be carried out substantially as outlined in Example 3.
# Tube formation assay is performed using 24-well plate wells coated with Matrigel or in 96-wells as described Ding et al. 2018 (Ding et al. BMC Ophthalmology (2018) 18:249): A 96-well plate is coated with 50 μL/well Matrigel at 37° C. for 30 min. After co-culturing with microglia for 24 h, HRMECs are seeded on the Matrigel at 1.5×10^4 cells/well in 100 μL medium. After a period of time, for example 4 h, tube formation is observed and photographed with a microscope (Leica Microsystems). Images are analysed using the Angiotool plugin (Zudaire et al., 2011, PLoS one, 6, 11, e27385) for ImageJ (NIH public domain). Total tube area, tube length, density, lacunarity, and branching index (number of junctions and endpoints) are quantified.
# [4] = test system: choroidal neovascularisation; assay: Laser-induced choroidal neovascularisation rat model, fluorescein angiography leakage score; type: in vivo, Brown Norway pigmented rats; parameters: key to Mean score of fluorescein leakage: 0 = no leakage, 1 = slight, 2 = moderate, 3 = strongly stained
# Procedure: Forty-eight (48) Brown Norway pigmented rats were divided into six (6) groups of eight (8) animals. Choroidal neovascularization was induced using a 532 nm argon laser photocoagulator (six (6) 75 μm-sized spots at 150 mW for 0.1 sec duration) in the right eyes on Day 0. The test item was administered three times a day by instillation or twice a day by oral administration from Day 0 (DO) just after ChNV induction to Day 21 (last day of the study). Control item (vehicle) was instilled three times a day and the reference item (Dexamethasone in olive oil) was administered by daily oral administration from the Day 0 just after induction of neovascularization to Day 21. Fundus neovessels were evaluated in the right eyes on Days 14 and 21 using Heidelberg's Retinal Angiograph (HRA). Lesion size was determined on choroid flatmounts labelled with Isolectin-B4 at the end of the in vivo period.
# On Day 0, animals were anesthetized by an intramuscular injection of a mix of xylazine (5 mg/kg) and ketamine (25 mg/kg). Pupils from the right eyes were dilated by instillation of one drop of 0.5% tropicamide. Then, six (6) choroidal burns (75 μm spot size) were done through a slit-lamp, with a contact lens, around the optic disc, between the main vessel branches using an argon laser photocoagulator (532 nm; 150 mW; 0.1 sec duration). Production of a bubble at the time of laser treatment confirmed the rupture of Bruch's membrane.
# Test, control, or reference items were administered topically by instillation (10 μL each) or by oral route (1 mL/kg) from Day 0 (just after the induction) to Day 21 (end of the study). Test and control items were administered three times a day (for instillation) and two times a day (for oral administration). Reference item was administered once a day by oral route.
# Fluorescein angiography was performed on Days 14 and 21 using an HRA (Heidelberg's Retinal Angiograph). After anaesthesia (same mix used for ChNV induction) and pupillary dilation, 250 μL/100 g (body weight) of a 10% sodium fluorescein was injected subcutaneously using a 26-G insulin syringe, and fluorescein photos were recorded 10 minutes after dye injection.
# The leakage of fluorescein on the angiograms were evaluated by two examiners in a masked fashion and graded as follows: • Score 0, no leakage; • Score 1, slightly stained; • Score 2, moderately stained; • Score 3, strongly stained.
# Statistical analysis, using Mann-Whitney U test or appropriate statistical model, were performed on the scoring of lesions visualized by HRA from each animal and on the scoring of the flat mounted preparations.
# The grading of fluorescein angiographies (FA) was based on the fluorescence intensity for each lesion. For each treatment group, results were expressed as the group mean score per time-point. Table 1 summarises the evaluation of FA recorded at 10 min on Days 14 and 21 (n=8 animals per group, right eyes). A statistical analysis was performed on the median of the individual intensity scores, using a Kruskall-Wallis test followed by a Mann & Whitney U multiple comparison test, which was used to compare each test, control or reference group.
# [5] = test system: VEGF induced corneal vascularisation; assay: VEGF induced corneal vascularisation (pellet in corneal pocket), area of neovascularisation; type: in vivo, C57BL/6 mice; parameters: Area of vasc.: unit not given beside the values
# Procedure: The area of the neovascularisation can be measured using the formula: Area=0.2·VL·CH·π wherein vessel length (VL) and continuous circumferential zone (in clock hours=CH) are measured as defined in FIG. 1. Treatment with Laquinimod of VEGF Induced Corneal Vascularisation
# Hydron pellets for induction of vascularisation were prepared from stimulant (VEGF) and binding agent (sucralfate).
# 53 CR female C57BL/6 mice aged 6 to 8 weeks were prepared for surgery by anesthetising with 90 mg/kg of pentobarbital, ip. Corneal vascularisation was induced by placement of a pellet in a corneal pocket cut in one eye. Signs for ocular irritation or infection were carefully monitored.
# […] Vascularisation was measured on day 8.
# [6] = group 4: 10 μg/animal topical bid ×5, measured day 6
# [7] = group 6: 10 μg/animal topical qid ×5, measured day 6
# [8] = Instillations 0.2% 3×/day, Day 14
# [9] = Instillations 0.2% 3×/day, Day 21
# [10] = Instillations 1% 3×/day, Day 14
# [11] = Instillations 1% 3×/day, Day 21
# [12] = Instillations 5% 3×/day, Day 14
# [13] = Instillations 5% 3×/day, Day 21
# [14] = group 4: 10 μg/animal topical bid ×7, measured day 8
# [15] = group 5: 50 μg/animal topical bid ×7, measured day 8
# [16] = group 6: 10 μg/animal topical qid ×7, measured day 8
# [17] = group 7: 50 μg/animal topical qid ×7, measured day 8
structure (smiles),measurement,setting,value
CCN(C(=O)c1c(O)c2c(Cl)cccc2n(C)c1=O)c1ccccc1 [laquinimod],Inhibition of corneal vascularisation induced by bFGF,"[1]; 0.5 mg/kg qid, group 6",37%
same,Area of vasc.,[1]; [6],3.16 ± 0.06
same,Area percent of positive control,[1]; [6],89%
same,Area of vasc.,[1]; [7],2.25 ± 0.16
same,Area percent of positive control,[1]; [7],63%
same,Area percent of positive control,"[1]; group 7: 50 μg/animal topical qid ×5, measured day 6",44%
same,annual relapse rate,[2],consistent clinical benefit
same,effect on tube formation of combination compared to each compound used as monotherapy,[3],clear additive effect
same,% of reduction vs respective vehicle,[4]; [8],0%
same,Mean score of fluorescein leakage,[4]; [8],0.7
same,% of reduction vs respective vehicle,[4]; [9],18%
same,Mean score of fluorescein leakage,[4]; [9],0.9
same,% of reduction vs respective vehicle,[4]; [10],<0%
same,Mean score of fluorescein leakage,[4]; [10],1.1
same,% of reduction vs respective vehicle,[4]; [11],<0%
same,Mean score of fluorescein leakage,[4]; [11],1.2
same,% of reduction vs respective vehicle,[4]; [12],0%
same,Mean score of fluorescein leakage,[4]; [12],0.7
same,% of reduction vs respective vehicle,[4]; [13],63%
same,Mean score of fluorescein leakage,[4]; [13],0.4
same,% of reduction vs respective vehicle,"[4]; Per os 1 mg/kg 2×/day, Day 14",<0%
same,Mean score of fluorescein leakage,"[4]; Per os 1 mg/kg 2×/day, Day 14",0.8
same,% of reduction vs respective vehicle,"[4]; Per os 1 mg/kg 2×/day, Day 21",18%
same,Mean score of fluorescein leakage,"[4]; Per os 1 mg/kg 2×/day, Day 21",0.9
same,vascular leakage,[4]; daily topical administration,effectively reduces vascular leakage
same,Inhibition of corneal vascularisation induced by VEGF,"[5]; 0.5 mg/kg bid, group 4",did not provide for any inhibition; also recorded: no inhibition
same,Inhibition of corneal vascularisation induced by VEGF,"[5]; 0.5 mg/kg qid, group 6",8%
same,Inhibition of corneal vascularisation induced by VEGF,"[5]; 2.5 mg/kg bid, group 5",46%
same,Inhibition of corneal vascularisation induced by VEGF,"[5]; 2.5 mg/kg qid, group 7",50%
same,Area of vasc.,[5]; [14],1.49 ± 0.13
same,Area percent of positive control,[5]; [14],101%
same,Area of vasc.,[5]; [15],0.79 ± 0.06
same,Area percent of positive control,[5]; [15],54%
same,Area of vasc.,[5]; [16],1.35 ± 0.09
same,Area percent of positive control,[5]; [16],92%
same,Area of vasc.,[5]; [17],0.74 ± 0.11
same,Area percent of positive control,[5]; [17],50%
